System: HCT116 p53 WT cells and p53 KO cells
Experiment: Growth inhibition assay (sulforhodamine B)
Assay type: cell-based, human
Conditions: single drug alone; HCT116 p53 WT and p53 knockout cells; FIG. 4 and FIG. 5
Method: The isogenic p53 human colon cancer cell line (WT and KO), HCT116 (see Hwang et al. Nat Med 2001 November 7(11):1255). Cells were maintained in McCoys 5A medium (Sigma) supplemented with 10% foetal calf serum (Gibco) at 37° C. in a 5% CO2 enriched humidified environment, Penicillin and Streptomycin. 96 well flat-bottomed plates were seeded with 3×10^3 cells per well and allowed to adhere overnight. Media was then replaced with fresh media alone (control) or containing test drugs e.g. 0-100 μM irinotecan, 50 to 200 nM geldanamycin (GA) and combinations of both. At fixed time points, cells were fixed with 3:1 methanol:acetic acid and stained with 0.4% w/v sulforhodamine B (Sigma) in 1% v/v acetic acid for 30 minutes. Plates were then washed twice with 1% v/v acetic acid, the dye solubilised with 100 μl per well of 10 mM Tris pH 10.4 and read at […] using a Benchmark microplate reader (BioRad). Drugs were used in the following concentrations for Growth inhibition and Clonogenic assays: [table]

SMILES | effect on cell growth
COC1=C2C[C@@H](C)C[C@H](OC)[C@H](O)[C@@H](C)/C=C(\C)[C@H](OC(N)=O)[C@@H](OC)/C=C\C=C(/C)C(=O)NC(=CC1=O)C2=O [Geldanamycin] | inhibitory effects
CCc1c2c(nc3ccc(OC(=O)N4CCC(N5CCCCC5)CC4)cc13)-c1cc3c(c(=O)n1C2)COC(=O)[C@]3(O)CC [Irinotecan] | inhibitory effects

Reference: patent US20050239720A1, “Combination of an agent that attenuates topoisomerase 1 activity and an agent that inhibits heat shock protein 90 for use in chemotherapy” (UNIVERSITY OF LIVERPOOL Senate House, priority 2002, published 2005)
